EP0719552A2, “Pharmaceutical composition comprising a quinone derivative or a hydroquinone thereof for treating dermatitis” (Takeda Chemical Industries, Ltd., priority 1994, dated 1996)

Tests used:
[1] = tested on: IL-4; experiment: Ascaris-immunized mouse splenocytes (in vitro): IL-4 production, ELISA; type: cell-based, Balb/c mice; details: Splenocyte, 72 h, 25 µM drug, 40 µg/ml DNP-ascaris, 3 days, production in absence of compound taken as 100%, read-out: Suppression Rate (%) IL-4
Procedure: (§1) Method: Female Balb/c mice at 9 weeks of age (purchased from Shizuoka Laboratory Animal Center, Japan) were intraperitoneally administered 40 µg/mouse DNP-ascaris (2,4-dinitrophenylated ascaris extract, produced by LSL), together with Freund's complete adjuvant (FCA, produced by Difco, USA), and, 3 weeks later, splenocytes were collected. Splenocyte mixture was prepared from the spleens and suspended in RPMI-1640 medium (produced by Bio Whittaker, Inc., USA) containing inactivated fetal bovine serum (10% v/v, produced by Difco, USA), 2-mercaptoethanol (50 µM), L-glutamine (2 mM) and gentamicin (20 µg/ml) to yield a single cell suspension. After cell number was set to 3.3 × 10^6 cells/ml, DNP-ascaris was added to 96-well round-bottomed plates (produced by Sumitomo Bakelite Co., Ltd., Japan) containing a 25 µM test drug, at 12.5 µg/ml, and cultured at 37°C for 3 days in a 5% carbon dioxide incubator. After completion of cultivation, 3-(4,5-dimethylthiazol-2-yl)-2,5-diphenyl-tetrazolium bromide (MTT, produced by Dojin Kenkyujo, Japan) in PBS buffer was added to each well at 0.86 mg/ml, followed by cultivation in the carbon dioxide incubator for 6 hours. To this culture, a 10% SDS-0.01 N HCl mixture was added at 50 µl per well, followed by incubation in the carbon dioxide incubator for 18 hours, after which absorbance at 620 nm was determined.
Next, DNP-ascaris was added to a 1.2 × 10^6 cells/ml splenocyte suspension in each 96-well round-bottomed plate containing a drug (25 µM), at 40 µg/ml, and cultured at 37°C for 3 days in the 5% carbon dioxide incubator. After this culture was centrifuged at 200 x g for 5 minutes, the culture supernatant was collected, and, the amount of IL-4 produced in each supernatant was determined by ELISA [mouse IL-4 ELISA kit (produced by Endogen, USA)].

[2] = tested on: ascaris-immunized mouse splenocytes; experiment: Ascaris-immunized mouse splenocytes (in vitro): DNP-ascaris stimulated growth, MTT; type: cell-based, Balb/c mice; details: Splenocyte, 72 h, 25 µM test drug, 12.5 µg/ml DNP-ascaris, 3 days, absorbance in absence of compound taken as 100%, read-out: Suppression Rate (%) MTT
Procedure: as §1

[3] = tested on: ascaris-immunized mouse splenocytes; experiment: Ascaris-immunized mouse splenocytes (in vivo dosing): DNP-ascaris specific growth response, MTT; design: species or system Balb/c mice; details: 100 mg/kg/day orally 5 times weekly for 3 weeks; splenocytes cultured with 12.5 µg/ml DNP-ascaris 3 days; absorbance of non-sensitized splenocytes taken as 1 (sensitized 0.5% MC control 5.52)
Procedure: Method: Female Balb/c mice at 9 weeks of age (purchased from Shizuoka Laboratory Animal Center, Japan) were intraperitoneally administered 40 µg/mouse DNP-ascaris (2,4-dinitrophenylated ascaris extract, produced by LSL) together with Freund's complete adjuvant (FCA, produced by Difco, USA), 3 weeks later, splenocytes were collected. The compound 1((±)-7-(3,5,6-trimethyl-1,4-benzoquino-2-yl)-7-phenylheptonoic acid) was suspended in 0.5% methyl cellulose (MC) and orally administered at 100 mg/kg/day 5 times weekly for 3 weeks, starting at the day before DNP-ascaris administration. After final oral administration, the splenocyte mixture was prepared from the spleens of 5 animals per group, and suspended in RPMI-1640 medium (produced by Bio Whittaker, Inc., USA) containing inactivated fetal bovine serum (10% v/v, produced by Difco, USA), 2-mercaptoethanol (50 µM), L-glutamine (2 mM) and gentamicin (20 µg/ml) to yield a single cell suspension. After cell number was set to 3.3 × 10^6 cells/ml, DNP-ascaris was added to 96-well round-bottomed plates (produced by Sumitomo Bakelite Co., Ltd., Japan) at 12.5 µg/ml, and cultured at 37°C for 3 days in an incubator containing 5% carbon dioxide. […] To this culture, a 10% SDS-0.01N HCl mixture was added at 50 µl per well, followed by incubation in the carbon dioxide incubator for 18 hours, after which absorbance at 620 nm was determined.

[4] = tested on: IL-5; experiment: Ovalbumin-immunized mouse splenocytes (oral dosing): IL-5 production, ELISA; type: in vivo, Balb/c mice; details: 100 mg/kg orally for two weeks, 10 ug/ml OVA 3 days
Procedure: (§2) Method: Seven-week-old made Balb/c mice (Charles River Japan) were used. Mice were immunized i.p. with 1 ug ovalbumin (OVA, albumin chicken egg grade III; Sigma, USA) in aluminium hydroxide hydrate gel suspension (Alum, ISL Co., Ltd., Japan) twice at an unterval of a week. Two weeks after first immunization, spleens were asceptically removed, and single cell suspension was prepared in RPMI-1640 (Bio Whittaker, Inc., USA) containing 10% heat-inactivated fetal calf serum (FCS, Bio Whittaker, Inc., USA), 50 uM 2-mercaptoethanol, 2 mM L-glutamine, and 20 ug/ml gentamicin. Compound 1((+)-7-(3,5,6-trimethyl-1,4-benzoquino-2-yl)-7-phenylheptonoic acid) at 100 mg/kg suspended with 0.5% methyl cellulose (MC) was given orally in a volume of 10 ml/kg for two weeks from a day before first immunization. Splenocytes (3.3 × 10^6 cells) were cultured with 10 ug/ml OVA in 125-ml wells of a 96-well round-bottomed tissue culture plate (Sumitomo Bakelite Co., Ltd., Japan) and were kept in a humidified incubation at 37°C in 5% CO2 in air for three days.
(§3) To study the effect of the drug on the cytokine production, after centrifuged at 200×g for 5 minutes, the supernatant of the culture well was removed and its IL-4 and IL-5 contents were measured by ELISA kits (Endogen, USA).

[5] = tested on: IL-4; experiment: Ascaris-immunized mouse splenocytes (in vivo dosing): IL-4 production, ELISA; design: species or system Balb/c mice; details: 100 mg/kg/day orally 5 times weekly for 3 weeks; splenocytes cultured with 40 µg/ml DNP-ascaris 3 days; non-sensitized taken as 1 (sensitized 0.5% MC control 15.8)
Procedure: (§4) Method: Female Balb/c mice at 9 weeks of age (purchased from Shizuoka Laboratory Animal Center, Japan) were intraperitoneally administered 40 µg/mouse DNP-ascaris (2,4-dinitrophenylated ascaris extract, produced by LSL) together with Freund's complete adjuvant (FCA, produced by Difco, USA), 3 weeks later, splenocytes were collected. The compound 1((±)-7-(3,5,6-trimethyl-1,4-benzoquino-2-yl)-7-phenylheptonoic acid) was suspended in 0.5% methyl cellulose (MC) and orally administered at 100 mg/kg/day 5 times weekly for 3 weeks, starting at the day before DNP-ascaris administration. […] To this culture, a 10% SDS-0.01N HCl mixture was added at 50 µl per well, followed by incubation in the carbon dioxide incubator for 18 hours, after which absorbance at 620 nm was determined.
(§5) Next, DNP-ascaris was added to a 1.2 × 10^6 cells/ml splenocyte suspension in each 96-well round-bottomed plate at 40 µg/ml and cultured at 37°C for 3 days in the 5% carbon dioxide incubator. After this culture was centrifuged at 200 x g for 5 minutes, the culture supernatant was collected, and, the amounts of IL-4 and IL-5 produced in each supernatant were determined by ELISA [mouse IL-4 ELISA kit (produced by Endogen, USA); mouse IL-5 ELISA kit (produced by Endogen, USA)].

[6] = tested on: IL-5; experiment: Ascaris-immunized mouse splenocytes (in vivo dosing): IL-5 production, ELISA; design: species or system Balb/c mice; details: 100 mg/kg/day orally 5 times weekly for 3 weeks; splenocytes cultured with 40 µg/ml DNP-ascaris 3 days; non-sensitized taken as 1 (sensitized 0.5% MC control 43.3)
Procedure: as §4, §5

[7] = tested on: IL-5 mRNA; experiment: IL-5 mRNA expression in ovalbumin-immunized mouse splenocytes (oral dosing), RT-PCR; type: in vivo, Balb/c mice; details: 10 and 100 mg/kg orally for two weeks; splenocytes cultured with 10 ug/ml OVA for 4, 7 and 24 hours; Fig. 1
Procedure: Method: Eight-week-old male Balb/c mice (Charles River Japan) immunized i.p. with 1 ug OVA absorbed to 1 mg Alum twice at an unterval of a week. Two weeks after the first immunization, splenocytes were prepared in RPMI-1640 (BioWhittaker, Inc., USA) containing 10% heat-inactivated fetal bovine serum (FBS, Bio Whittaker, Inc., USA), 50 uM 2-mercaptoethanol, 2 mM L-glutamine, and 20 ug/ml gentamicin. Compound 1 ((±)-7-(3,5,6-trimethyl-1,4-benzoquino-2-yl)-7-phenylheptonoic acid) at 10 and 100 mg/kg suspended with 0.5% methyl cellulose (MC) was given orally in a volume of 20 ml/kg for two weeks from a day before first immunization. […] Following the heat inactivation at 95°C for 10 min, one fifth of the cDNA mixtures was amplified by Ex Taq DNA polymerase (Takara Shuzoh, Japan) with the appropriate oligonucleatide primers (mouse IL-5 and β-actin amplimer set (Clontech). A DNA Thermal Cycler (Perkin Elmer) was used for 50 DNA amplification cycles, with a denaturation step at 95°C for 1 min, an annealing step at 55°C for 2 min, and an extension step at 72°C for 3 min. Twenty percent of the amplified DNA was analyzed by electrophoresis in a 2% GTG agarose gel. After staining with ethidium bromide, the DNA band was photographed under UV light. The data of the negatives were analyzed by NIH Image 1.55 software. […]

[8] = tested on: IL-4; experiment: Ovalbumin-immunized mouse splenocytes (oral dosing): IL-4 production, ELISA; type: in vivo, Balb/c mice; details: 100 mg/kg orally for two weeks, 10 ug/ml OVA 3 days
Procedure: as §2, §3

[9] = tested on: ovalbumin-immunized mouse splenocytes; experiment: Ovalbumin-immunized mouse splenocytes (oral dosing): OVA-specific growth response, MTT; type: in vivo, Balb/c mice; details: 100 mg/kg orally for two weeks; splenocytes cultured with 10 ug/ml OVA 3 days; non-sensitized taken as 1 (sensitized 0.5% MC control 2.07)
Procedure: as §2, with “Splenocytes (3.3 × 10^6 cells) were cultured with 10 ug/ml OVA in 125-ml wells of a 96-well round-bottomed tissue culture plate (Sumitomo Bakelite Co., Ltd., Japan) and were kept in a humidified incubation at 37°C in 5% CO2 in air for three days.” left out
To study the effect of drug on the proliferation, 50 ul of 3 mg/ml 3(4,5-dimethylthiazol-2-yl)-2,5-diphenyltetrazolium bromide (MTT, Dojinedo Labs., Japan) resolved in phosphate buffered saline (PBS) was added into each well for final 6 hours of culture. The culture was completed by added 50 ul of 10% SDS resolved into 0.1 N HCl solution and after kept in 37°C for 18 hours, the absorbance at 620 nm was measured.

| Compound | inhibition at 25 µM [1] [%] | inhibition at 25 µM [2] [%] | also measured |
| --- | --- | --- | --- |
| CC1=C(C)C(=O)C(C(CCCCCCCCC(=O)O)c2ccccc2)=C(C)C1=O (stereo not drawn) [Compound 4] | 87 | 60 | – |
| CC1=C(C)C(=O)C(C(CCCCCCC(=O)O)c2ccccc2)=C(C)C1=O (stereo not drawn) [Compound 2] | 38 | 40 | – |
| COC1=C(OC)C(=O)C(C(CCCCCC(=O)O)c2ccc(C(C)C)cc2)=C(C)C1=O (stereo not drawn) [Compound 6] | 57 | 33 | – |
| COC1=C(OC)C(=O)C(C(CCCCCO)c2ccc(OC)cc2)=C(C)C1=O (stereo not drawn) [Compound 5] | 80 | 46 | – |
| CC1=C(C)C(=O)C(C(CCC(=O)O)c2ccccc2)=C(C)C1=O (stereo not drawn) [Compound 3] | 38 | 36 | – |
| CC1=C(C)C(=O)C(C(CCCCCC(=O)O)c2ccccc2)=C(C)C1=O (racemic) [Compound 1, (±)-7-(3,5,6-trimethyl-1,4-benzoquinon-2-yl)-7-phenylheptanoic acid] | 15 | 44 | DNP-ascaris Specific Growth Response, Relative Value [3]: 3.37; Cytokine Production, Relative Value Exp. 1 IL-5 ([4]; Exp. 1, non-sensitized taken as 1 (sensitized 0.5% MC control 7.3)): 4.8; Cytokine Production, Relative Value Exp. 2 IL-5 ([4]; Exp. 2, non-sensitized taken as 1 (sensitized 0.5% MC control 31.8)): 21.7; Cytokine Production, Relative Value IL-4 [5]: 9.21; Cytokine Production, Relative Value IL-5 [6]: 13.6; antigen-stimulated IL-5 mRNA expression (ratio to β-actin PCR product) [7]: inhibits antigen-stimulated IL-5 mRNA expression; Cytokine Production, Relative Value Exp. 1 IL-4 ([8]; Exp. 1, non-sensitized taken as 1 (sensitized 0.5% MC control 24.7)): 7.7; Cytokine Production, Relative Value Exp. 2 IL-4 ([8]; Exp. 2, non-sensitized taken as 1 (sensitized 0.5% MC control 14.2)): 6.94; OVA-Specific Growth Response, Relative Value [9]: 1.75 |
